Values quoted from earlier work in PubChem BioAssay AID1259409 (Chemical Carcinogenesis Research Information System (CCRIS), 2018).

System: rodent chemically induced tumor inhibition, incidence and multiplicity
Assay: CCRIS tumor inhibitor studies

Question: For `CC(=O)O[C@]1(C(C)=O)CC[C@H]2[C@@H]3C[C@H](C)C4=CC(=O)CC[C@]4(C)[C@H]3CC[C@@]21C`, which “tumour outcome (control, treated, inhibition, significance)” value (Carcinogen: 7,12-DIMETHYLBENZ[A]ANTHRACENE, 57-97-6, Dose [Inhibitor]: 0, 30 MG (AS DEPO-PROVERA) ONCE 3 WK POST CARCINOGEN DOSE (STUDY DURATION: 85 D), Route [Inhibitor]: SUBCUTANEOUS, Species: RAT, Strain/Sex: SPRAGUE-DAWLEY/FEMALE, Target Tissue: Type of Lesion: MAMMARY GLAND: TUMOR, Dose [Carcinogen]: 20 MG IN 1 ML CORN OIL ONCE, Promoter: NONE USED) is on record?
Answer: Its value is 63%, 49%, 22%, not calculated.

Question: And the “tumour outcome (control, treated, inhibition, significance)” value (Carcinogen: 7,12-DIMETHYLBENZ[A]ANTHRACENE, 57-97-6, Dose [Inhibitor]: 0, 30 MG (AS DEPO-PROVERA) ONCE 7 D PRIOR TO CARCINOGEN DOSE (STUDY DURATION: 92 D), Route [Inhibitor]: SUBCUTANEOUS, Species: RAT, Strain/Sex: SPRAGUE-DAWLEY/FEMALE, Target Tissue: Type of Lesion: MAMMARY GLAND: TUMOR, Dose [Carcinogen]: 20 MG IN 1 ML CORN OIL ONCE, Promoter: NONE USED)?
Answer: The value was 63%, 28%, 56%, not calculated.

Question: What about the “tumour outcome (control, treated, inhibition, significance)” value (Carcinogen: 7,12-DIMETHYLBENZ[A]ANTHRACENE, 57-97-6, Dose [Inhibitor]: 0, 30 MG (MICROSPHERES) ONCE 7 D PRIOR TO CARCINOGEN DOSE (STUDY DURATION: 92 D), Route [Inhibitor]: SUBCUTANEOUS, Species: RAT, Strain/Sex: SPRAGUE-DAWLEY/FEMALE, Target Tissue: Type of Lesion: MAMMARY GLAND: TUMOR, Dose [Carcinogen]: 20 MG IN 1 ML CORN OIL ONCE, Promoter: NONE USED) of the same compound?
Answer: Its value is 63%, 7%, 89%, not calculated.

Question: What about the “tumour outcome (control, treated, inhibition, significance)” value (Carcinogen: 7,12-DIMETHYLBENZ[A]ANTHRACENE, 57-97-6, Dose [Inhibitor]: 0, 100 MG (AS DEPO-PROVERA) ONCE 3 WK POST CARCINOGEN DOSE (STUDY DURATION: 85 WK), Route [Inhibitor]: SUBCUTANEOUS, Species: RAT, Strain/Sex: SPRAGUE-DAWLEY/FEMALE, Target Tissue: Type of Lesion: MAMMARY GLAND: TUMOR, Dose [Carcinogen]: 20 MG IN 1 ML CORN OIL ONCE, Promoter: NONE USED) of the same compound?
Answer: Its value is 63%, 29%, 54%, not calculated.

Question: What about the “tumour outcome (control, treated, inhibition, significance)” value (Carcinogen: 7,12-DIMETHYLBENZ[A]ANTHRACENE, 57-97-6, Dose [Inhibitor]: 0, 100 MG (AS DEPO-PROVERA) ONCE 7 D PRIOR TO CARCINOGEN DOSE (STUDY DURATION: 92 D), Route [Inhibitor]: SUBCUTANEOUS, Species: RAT, Strain/Sex: SPRAGUE-DAWLEY/FEMALE, Target Tissue: Type of Lesion: MAMMARY GLAND: TUMOR, Dose [Carcinogen]: 20 MG IN 1 ML CORN OIL ONCE, Promoter: NONE USED) of the same compound?
Answer: The value was 63%, 23%, 63%, not calculated.

Question: And the “tumour outcome (control, treated, inhibition, significance)” value (Carcinogen: 7,12-DIMETHYLBENZ[A]ANTHRACENE, 57-97-6, Dose [Inhibitor]: 0, 100 MG (MICROSPHERES) ONCE 7 D PRIOR TO CARCINOGEN DOSE (STUDY DURATION: 92 D), Route [Inhibitor]: SUBCUTANEOUS, Species: RAT, Strain/Sex: SPRAGUE-DAWLEY/FEMALE, Target Tissue: Type of Lesion: MAMMARY GLAND: TUMOR, Dose [Carcinogen]: 20 MG IN 1 ML CORN OIL ONCE, Promoter: NONE USED)?
Answer: The value was 63%, 6%, 90%, not calculated.

Question: What about the “tumour outcome (control, treated, inhibition, significance)” value (Carcinogen: METHYLNITROSOUREA, 684-93-5, Dose [Inhibitor]: 0, 40 MG DEPOT EVERY 2 MO (STUDY DURATION: 345 D), Route [Inhibitor]: SUBCUTANEOUS, Species: MOUSE, Strain/Sex: BALB/FEMALE, Target Tissue: Type of Lesion: HEMATOPOIETIC SYSTEM: LYMPHOMA, Dose [Carcinogen]: 50 MG/KG BW ONCE 15 D POST INHIBITOR REMOVAL, Promoter: NONE) of the same compound?
Answer: The value was 18/28 (65%), 5/35 (17%), 74%, p<0.05.

Question: And the “tumour outcome (control, treated, inhibition, significance)” value (Carcinogen: METHYLNITROSOUREA, 684-93-5, Dose [Inhibitor]: 0, 40 MG DEPOT EVERY 2 MO (STUDY DURATION: 345 D), Route [Inhibitor]: SUBCUTANEOUS, Species: MOUSE, Strain/Sex: BALB/FEMALE, Target Tissue: Type of Lesion: LUNG: TUMOR, Dose [Carcinogen]: 50 MG/KG BW ONCE 15 D POST INHIBITOR REMOVAL, Promoter: NONE)?
Answer: Its value is 24/28 (86%), 28/31 (89%), -3%, not significant.

Question: What about the “tumour outcome (control, treated, inhibition, significance)” value (Carcinogen: METHYLNITROSOUREA, 684-93-5, Dose [Inhibitor]: 0, 40 MG DEPOT EVERY 3 MO (STUDY DURATION: 277 D), Route [Inhibitor]: SUBCUTANEOUS, Species: MOUSE, Strain/Sex: BALB/FEMALE, Target Tissue: Type of Lesion: HEMATOPOIETIC SYSTEM: LYMPHOMA, Dose [Carcinogen]: 50 MG/KG BW ONCE 1 WK POST INHIBITOR FIRST DOSE, Promoter: NONE) of the same compound?
Answer: Its value is 18/28 (65%), 7/35 (19%), 71%, p<0.05.

Question: And the “tumour outcome (control, treated, inhibition, significance)” value (Carcinogen: METHYLNITROSOUREA, 684-93-5, Dose [Inhibitor]: 0, 40 MG DEPOT EVERY 3 MO (STUDY DURATION: 277 D), Route [Inhibitor]: SUBCUTANEOUS, Species: MOUSE, Strain/Sex: BALB/FEMALE, Target Tissue: Type of Lesion: LUNG: TUMOR, Dose [Carcinogen]: 50 MG/KG BW ONCE 1 WK POST INHIBITOR FIRST DOSE, Promoter: NONE)?
Answer: Its value is 24/28 (86%), 31/35 (88%), -2%, not significant.

Question: What about the “tumour outcome (control, treated, inhibition, significance)” value (Carcinogen: METHYLNITROSOUREA, 684-93-5, Dose [Inhibitor]: 0, 40 MG DEPOT EVERY 3 MO BEGINNING 1 WK POST CARCINOGEN (STUDY DURATION: 9 MO), Route [Inhibitor]: SUBCUTANEOUS, Species: MOUSE, Strain/Sex: BALB/FEMALE, Target Tissue: Type of Lesion: HEMATOPOIETIC SYSTEM: LYMPHOMA, Dose [Carcinogen]: 50 MG/KG BW ONCE, Promoter: NONE) of the same compound?
Answer: The value was 18/28 (65%), 7/50 (15%), 77%, p<0.05.

Question: What about the “tumour outcome (control, treated, inhibition, significance)” value (Carcinogen: METHYLNITROSOUREA, 684-93-5, Dose [Inhibitor]: 0, 40 MG DEPOT EVERY 3 MO BEGINNING 1 WK POST CARCINOGEN (STUDY DURATION: 9 MO), Route [Inhibitor]: SUBCUTANEOUS, Species: MOUSE, Strain/Sex: BALB/FEMALE, Target Tissue: Type of Lesion: LUNG: TUMOR, Dose [Carcinogen]: 50 MG/KG BW ONCE, Promoter: NONE) of the same compound?
Answer: Its value is 24/28 (86%), 44/50 (89%), -3%, not significant.

Question: And the “tumour outcome (control, treated, inhibition, significance)” value (Carcinogen: METHYLNITROSOUREA, 684-93-5, Dose [Inhibitor]: 0, 40 MG DEPOT FOR 2 MO BEGINNING 1 WK POST CARCINOGEN (STUDY DURATION: 9 MO), Route [Inhibitor]: SUBCUTANEOUS, Species: MOUSE, Strain/Sex: BALB/FEMALE, Target Tissue: Type of Lesion: HEMATOPOIETIC SYSTEM: LYMPHOMA, Dose [Carcinogen]: 50 MG/KG BW ONCE, Promoter: NONE)?
Answer: Its value is 18/28 (65%), 7/27 (26%), 60%, p<0.05.

Question: What about the “tumour outcome (control, treated, inhibition, significance)” value (Carcinogen: METHYLNITROSOUREA, 684-93-5, Dose [Inhibitor]: 0, 40 MG DEPOT FOR 2 MO BEGINNING 1 WK POST CARCINOGEN (STUDY DURATION: 9 MO), Route [Inhibitor]: SUBCUTANEOUS, Species: MOUSE, Strain/Sex: BALB/FEMALE, Target Tissue: Type of Lesion: LUNG: TUMOR, Dose [Carcinogen]: 50 MG/KG BW ONCE, Promoter: NONE) of the same compound?
Answer: Its value is 24/28 (86%), 23/27 (85%), 0%, not significant.

Question: For `CN(C(=O)c1c(O)c2ccccc2n(C)c1=O)c1ccccc1`, which “tumour outcome (control, treated, inhibition, significance)” value (Carcinogen: N-METHYL-N-NITROSOUREA, 684-93-5, Dose [Inhibitor]: 0, 25 MG/KG/D IN DRINKING WATER FOR 12 MO BEGINNING 1 WK POST CARCINOGEN DOSE (STUDY DURATION: 12 MO), Route [Inhibitor]: ORAL, Species: RAT, Strain/Sex: LOBUND WISTAR/MALE, Target Tissue: Type of Lesion: SEMINAL VESICLE/PROSTATE: TUMOR, Dose [Carcinogen]: 30 MG/KG ONCE AT 90 D OF AGE, Promoter: TESTOSTERONE PROPIONATE, 57-85-2) is on record?
Answer: Its value is 90%, 40%, 56%, not calculated.

Question: With `O=c1[nH]cnc2[nH]ncc12` as the compound, how does the “tumour outcome (control, treated, inhibition, significance)” value (Carcinogen: N-BUTYL-N-(4-HYDROXYBUTYL)NITROSAMINE, 3817-11-6, Dose [Inhibitor]: 0.02% DIET DAILY FOR 34 WK STARTING AFTER CARCINOGEN TREATMENT (STUDY DURATION: 38 WK), Route [Inhibitor]: ORAL, Species: RAT, Strain/Sex: F344/MALE, Target Tissue: Type of Lesion: URINARY BLADDER: PAPILLOMA, Dose [Carcinogen]: 0.01% IN DRINKING WATER FOR 4 WK, Promoter: NONE USED) read?
Answer: Its value is 33%, 43%, -30%, not significant.

Question: With `Cc1cnc(NC(=O)C2=C(O)c3ccccc3S(=O)(=O)N2C)s1` as the compound, how does the “tumour outcome (control, treated, inhibition, significance)” value (Carcinogen: N-NITROSOBIS(2-OXOPROPYL)AMINE [60599-38-4], Dose [Inhibitor]: 5 MG/KG EACH WEEKDAY OVER A PERIOD OF 16 WKS STARTING AT 4 WKS (STUDY DURATION: 20 WKS), Route [Inhibitor]: ORAL (GAVAGE?), Species: HAMSTER, Strain/Sex: SYRIAN GOLDEN/FEMALE, Target Tissue: Type of Lesion: GALL BLADDER: CARCINOMA IN SITU, Dose [Carcinogen]: 10 MG/KG BW AT WKS 4, 6, 8, 10, 12, 14, 16, 18 (8 DOSES) (STUDY DURATION: 20 WKS)) read?
Answer: Its value is 4/11 (36%), 0/11 (0%), 100%, not significant.

Question: With `CC(C)(Oc1ccc(CCNC(=O)c2ccc(Cl)cc2)cc1)C(=O)O` as the compound, how does the “tumour outcome (control, treated, inhibition, significance)” value (Carcinogen: AZOXYMETHANE (25843-45-2), Dose [Inhibitor]: 0, 0.05% ADMINISTERED 1 WK AFTER END OF DEXTRAN SODIUM SULFATE TREATMENT FOR 14 WKS (STUDY DURATION: 17 WKS), Route [Inhibitor]: DIET, Species: MOUSE, Strain/Sex: CD-1/FEMALE (10,10)/(10,10), Target Tissue: Type of Lesion: COLON: ADENOCARCINOMA, Dose [Carcinogen]: 10 MG/KG ONCE, Promoter: DEXTRAN SODIUM SULFATE (9011-18-1)) read?
Answer: Its value is 10/10 (100%), 6/10 (60%), 40%, p<0.05.

Question: What about the “tumour outcome (control, treated, inhibition, significance)” value (Carcinogen: AZOXYMETHANE (25843-45-2), Dose [Inhibitor]: 0, 0.05% ADMINISTERED 1 WK AFTER END OF DEXTRAN SODIUM SULFATE TREATMENT FOR 14 WKS (STUDY DURATION: 17 WKS), Route [Inhibitor]: DIET, Species: MOUSE, Strain/Sex: CD-1/FEMALE (10,10)/(10,10), Target Tissue: Type of Lesion: COLON: ADENOMA, Dose [Carcinogen]: 10 MG/KG ONCE, Promoter: DEXTRAN SODIUM SULFATE (9011-18-1)) of the same compound?
Answer: The value was 10/10 (100%), 7/10 (70%), 30%, not significant.
